# Assay results: patent publication US20240110004A1 (Northwestern University, priority 2022, published 2024)
# Where no end group is shown, it is not given here.
# Assays:
# [1] = mouse, in vivo
# [2] = system: HdhQ111 cells; assay: Cell uptake by confocal microscopy and flow cytometry; assay type: cell-based, mouse; conditions: compared to the HV3-TAT-Rho peptide and rhodamine dye control
# Method: Scale bars: 60 μm; 12 μm for inset. Cell Membrane: wheat germ agglutinin-Alexa 488 (green channel). Material: Rhodamine (red channel). Nuclei: Hoechst 33342 stain (blue channel).
# Cell Uptake Methods: A major drawback for most peptide-based drugs is poor innate cell membrane permeability, such that many peptide-based drugs fail to reach their putative intracellular targets. Cellular uptake was evaluated by confocal microscopy and flow cytometry using a rhodamine dye labeled version of HV3-TAT (HV3-TAT-Rho) and a rhodamine labeled version of P1 (P1-Rho, e.g., as shown in FIG. 28A). FIG. 28B provides the relative fluorescent intensities of rhodamine alone, HV3-TAT-Rho, and P1-Rho—rhodamine showing near 1:1 addition of dye on to compounds.
# [3] = system: HdhQ111 cells; assay: Accumulation assay, flow cytometry 2 and 7 days after a single treatment; assay type: cell-based, mouse; conditions: two and seven days after one treatment
# [4] = system: HdhQ111 cells; assay: Mitochondrial localization in live HdhQ111 cells; assay type: cell-based, mouse; conditions: 3 μM, Mitotracker staining
# Method: FIG. 7: Mitochondrial localization in live HdhQ111 cells. HdhQ111 cells were treated with HV3-TAT-Rho peptide, P1-Rho, and rhodamine dye alone at a concentration of 3 μM. Yellow (i.e., “localization” in FIG. 7) indicates colocalization of green and red channels, signifying localization to the mitochondria. Mitochondria: Mitotracker Green FM (green channel). Material: Rhodamine (red channel). Nuclei: Hoechst 33342 stain (blue channel). Scale Bars: 60 μm; 12 μm for inset.
# Mitochondrial Localization Methods: A decisive pathologic hallmark for HdhQ111 cells is mitochondrial fragmentation. Since the mitochondrial membrane is the specific intracellular target location for the designed system, mitochondrial localization of P1-Rho in HdhQ111 cells was evaluated. To visualize mitochondrial localization, the mitochondria were stained with Mito Tracker.
# [5] = system: HdhQ111 cells; assay: Cell viability (cell rescue) of serum-starved HdhQ111 cells; assay type: cell-based, mouse; conditions: 3 μM with respect to peptide, once a day for 3 days; compared to the vehicle control
# Method: FIG. 3A: Cell viability of HV3-TAT peptide and PLPs. Compounds treated to the HdhQ111 cells once a day for 3 days. Concentration was 3 μM with respect to peptide. FIG. 3B: VCP binding assay results for HV3-TAT, P1, P2, and P4.
# Cell Viability Methods: In vitro assays were carried out to examine the bioactivity of the PLPs, P1, P2, P3, and P4 and to compare against the known, active HV3-TAT. […] HdhQ111 cells were immortalized from knock-in mice carrying 111 CAG repeats in the mouse Htt gene.
# To verify that the PLPs retain bioactivity after being exposed to enzymes or serum treatments, the viability of HD mouse mutant striatal HdhQ111 cells was assessed following treatment with HV3-TAT and P1. […] Cells were maintained at 33° C. and 5% CO2 with a relative humidity of 95%. HdQ111 cells were plated in 96-well plates at a density of 5000 per well and then left to attach for 24 h. Cells were treated with HV3-TAT or PLPs at 3 μM with respect to peptide once a day, for 3 days. The medium was replaced every day. After 72 h, cells were washed 3 times with PBS buffer. At this point, 20 μL of CTB reagent in 80 uL of medium was added, and the cells incubated for 3 hours at 37° C. Fluorescence was measured at 590 nm with excitation at 560 nm using a Perkin Elmer EnSpire plate reader. The average background fluorescence of CTB in media without cells was subtracted from the average fluorescence readings of the experimental wells. Viability was calculated as the average background-subtracted signal in a well compared to that of a negative control well (treatment with vehicle or media). Three replicates were performed for each independent sample. 10% DMSO was used as a positive control and untreated cells in complete medium as a negative control. Viability is reported as a percentage of untreated cells.
# [6] = biological target: T1, interaction between VCP and mtHtt (Homo sapiens, UniProt P55072); assay: VCP binding assay: association of VCP to mtHtt by immunoprecipitation and western blot in HEK293 cells; assay type: cell-based; conditions: HEK293 cells co-transfected with GFP-VCP and myc-Q73 FL, 3 μM, three doses
# T1 construct: GFP; expressed in transfected cells; host or cells: HEK293
# T1 sequence (P55072 whole entry): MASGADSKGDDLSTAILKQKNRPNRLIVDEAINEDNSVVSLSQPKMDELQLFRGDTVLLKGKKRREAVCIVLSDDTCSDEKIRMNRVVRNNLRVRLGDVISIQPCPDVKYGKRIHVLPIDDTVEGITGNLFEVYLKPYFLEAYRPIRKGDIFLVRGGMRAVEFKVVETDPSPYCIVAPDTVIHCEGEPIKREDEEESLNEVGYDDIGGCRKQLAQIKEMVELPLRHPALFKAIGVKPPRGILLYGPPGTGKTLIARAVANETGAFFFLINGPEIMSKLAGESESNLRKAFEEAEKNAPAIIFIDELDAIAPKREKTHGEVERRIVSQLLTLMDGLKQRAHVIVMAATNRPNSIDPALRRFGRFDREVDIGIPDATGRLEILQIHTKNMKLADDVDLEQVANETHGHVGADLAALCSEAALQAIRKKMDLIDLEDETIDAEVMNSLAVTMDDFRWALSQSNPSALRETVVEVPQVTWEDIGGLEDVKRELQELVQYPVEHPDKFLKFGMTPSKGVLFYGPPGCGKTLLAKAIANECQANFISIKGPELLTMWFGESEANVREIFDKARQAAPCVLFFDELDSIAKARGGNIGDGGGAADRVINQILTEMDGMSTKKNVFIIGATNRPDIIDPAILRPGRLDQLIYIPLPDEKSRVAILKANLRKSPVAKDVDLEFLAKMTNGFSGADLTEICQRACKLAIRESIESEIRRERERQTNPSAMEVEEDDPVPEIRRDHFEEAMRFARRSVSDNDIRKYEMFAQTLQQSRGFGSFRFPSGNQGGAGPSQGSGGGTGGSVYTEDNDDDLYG
# Method: Therefore, target engagement protein binding assays were conducted. HEK293 cells were cultured and plated one day before treatment. Cells were pre-treated with HV3-TAT or PLPs at 3 μM for 2 h. Cells were then co-transfected with GFP-VCP and myc-Q73 FL plasmids. Cells were treated with a second dose of peptide or PLPs 6 hours after transfection, and a final third dose of peptide or PLPs treatment was administered 24 hours after transfection. Cell total lysate was harvested 48 hours after transfection, and to confirm binding of PLPs to VCP in cells, association of VCP to mtHtt was quantified by immunoprecipitation (IP) followed by western blot upon treatment of HV3-TAT peptide and PLPs.
# [7] = system: HdhQ111 cells; assay: Mitochondrial fragmentation assay; assay type: cell-based, mouse; conditions: compared to vehicle treatment group, at least 100 cells per group
# Method: FIG. 8: Mitochondrial fragmentation assay. The percentage of HdhQ111 cells with fragmented mitochondria relative to the total number of cells was quantitated. At least 100 cells per group were counted.
# FIG. 9: Mitochondrial fragmentation assay. Mitochondrial morphology was determined by staining cells with anti-Tom20 antibody. Nuclei: Hoechst 33342 stain. […] Scale Bars: 60 μm; 12 μm for inset.
# Mitochondrial Fragmentation Methods: As preventing the fragmentation of the mitochondria is important for maintaining the health of striatal cells in the HD in vitro model, the PLP's abilities were tested in this regard.
# [8] = Dulbecco's modified Eagle medium (DMEM) supplemented with 10% fetal bovine serum (FBS); conditions: 37° C.
# [9] = Dulbecco's modified Eagle medium (DMEM) supplemented with 25% fetal bovine serum (FBS); conditions: 37° C.
# [10] = system: pepsin; assay: pepsin; conditions: 37° C., up to 450 min
# [11] = enzymes (0.1 μM) in DPBS (pH 7.4) or hydrochloric acid solution (pH 2); conditions: 37° C.
substance,measurement,setting,value
"P1-Gd: P1 PLP terminated with the Gd-DOTA terminating agent (contrast agent tag) for ICPMS quantification (HVLVMSATRR-NH2; not fully specified (N-terminus); also: side chains of polynorbornene homopolymer (PLP, ROMP), Gd-DOTA terminating agent on polymer terminus)","biodistribution, main organs",[1],majority of the compound injected ends up in the liver and kidney
same,detection in the CNS,[1],detectable in the CNS
same,increase in half-life compared to the HV3-TAT peptide,[1],3000 fold
same,distribution half-life,"[1]; iv, 10 mg/kg",20 min
same,elimination half-life,"[1]; iv, 10 mg/kg",152 h
"P1-Rho: rhodamine labeled version of P1 (HVLVMSATRR-NH2; not fully specified (N-terminus); also: side chains of polynorbornene homopolymer (PLP), rhodamine label (site not given here))",cell association by flow cytometry,[2],significantly better cell association
same,presence of compound in cells after one initial treatment,[3],detected
same,mitochondrial localization,[4],exhibited overlapping signals with mitochondria
P2: PLP homopolymer having peptide side chains of SEQ ID: 2 (HVLVMSATKK) (HVLVMSATKK-NH2; not fully specified (N-terminus); also: side chains of polynorbornene homopolymer (PLP)),cell viability,[5],higher significance than P3
P4: PLP homopolymer having peptide side chains of SEQ ID: 4 (HVLVMSATKKKK) (HVLVMSATKKKK-NH2; not fully specified (N-terminus); also: side chains of polynorbornene homopolymer (PLP)),association of VCP to mtHtt (VCP binding),[6],exhibited evidence for binding
same,cell viability,[5],higher significance than P3
same,fragmented mitochondria,[7],significantly fewer fragmented mitochondria
PLP homopolymer having peptide side chains of SEQ ID: 1 (HVLVMSATRR),not cleaved,[8],stability of P1 seen with serum treatments
same,not cleaved,[9],stability of P1 seen with serum treatments
same,not cleaved,[10],no cleavage observed for up to 450 min
same,not cleaved,[11],maintained molecular weight running together with the untreated P1 control
